From ChEMBL document CHEMBL2074466, “Breast cancer resistance protein exports sulfated estrogens but not free estrogens” (Mol Pharmacol, 2003) come the findings set out here.

Series [1] deals with T1, Broad substrate specificity ATP-binding cassette transporter ABCG2 (Homo sapiens, UniProt Q9UNQ0).
T1 sequence (Q9UNQ0 whole entry): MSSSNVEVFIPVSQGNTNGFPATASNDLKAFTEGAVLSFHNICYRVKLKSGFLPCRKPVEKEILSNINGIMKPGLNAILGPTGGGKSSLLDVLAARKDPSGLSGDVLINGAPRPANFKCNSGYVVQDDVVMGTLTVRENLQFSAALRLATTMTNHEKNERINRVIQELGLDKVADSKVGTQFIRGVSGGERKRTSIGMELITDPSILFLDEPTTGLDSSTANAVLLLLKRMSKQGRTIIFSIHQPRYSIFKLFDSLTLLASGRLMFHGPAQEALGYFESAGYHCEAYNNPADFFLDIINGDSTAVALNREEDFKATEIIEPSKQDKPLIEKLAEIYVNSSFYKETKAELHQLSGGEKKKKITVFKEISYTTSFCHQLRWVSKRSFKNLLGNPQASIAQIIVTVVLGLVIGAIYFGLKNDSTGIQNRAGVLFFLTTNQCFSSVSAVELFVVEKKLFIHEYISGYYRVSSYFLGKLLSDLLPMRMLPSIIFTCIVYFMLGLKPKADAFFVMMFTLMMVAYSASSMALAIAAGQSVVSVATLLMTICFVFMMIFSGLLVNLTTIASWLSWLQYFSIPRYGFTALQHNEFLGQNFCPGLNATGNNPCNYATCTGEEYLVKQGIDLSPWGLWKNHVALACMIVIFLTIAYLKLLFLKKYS
Nature of the series: TP_TRANSPORTER: drug resistance in BCRP-expressing LLC-PK1 cells. The following applies: pig. It is filed as functional, cell-based.

Series [2] addresses T2, BCRP (ABCG2) (Homo sapiens, UniProt Q9UNQ0).
T2 sequence (Q9UNQ0 whole entry): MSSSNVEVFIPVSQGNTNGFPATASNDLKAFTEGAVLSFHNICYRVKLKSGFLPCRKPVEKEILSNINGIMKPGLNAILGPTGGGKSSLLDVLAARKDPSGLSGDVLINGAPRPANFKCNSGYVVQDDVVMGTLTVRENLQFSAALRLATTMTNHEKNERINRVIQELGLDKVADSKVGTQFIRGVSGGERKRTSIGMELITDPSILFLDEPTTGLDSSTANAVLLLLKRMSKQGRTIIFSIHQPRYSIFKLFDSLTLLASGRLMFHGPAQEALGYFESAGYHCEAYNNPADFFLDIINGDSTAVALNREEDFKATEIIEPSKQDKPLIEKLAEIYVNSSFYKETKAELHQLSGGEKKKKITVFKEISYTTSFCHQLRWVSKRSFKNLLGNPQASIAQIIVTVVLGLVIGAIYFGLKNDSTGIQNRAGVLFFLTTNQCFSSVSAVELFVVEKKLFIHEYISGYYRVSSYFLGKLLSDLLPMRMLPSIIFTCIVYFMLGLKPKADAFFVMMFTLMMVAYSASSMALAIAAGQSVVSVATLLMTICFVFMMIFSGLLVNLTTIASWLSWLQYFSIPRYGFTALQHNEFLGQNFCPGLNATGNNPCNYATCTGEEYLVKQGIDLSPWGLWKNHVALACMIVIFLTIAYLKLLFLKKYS
Put plainly: TP_TRANSPORTER: inhibition of E1S uptake by Taurolithocholate-3-sulfate at a concentration of 30uM in membrane vesicle from BCRP-expressing K562 cells. Type of series: functional, cell membranes. Set-up: scale not given: the % may be the effect or the level left. The following applies: membrane vesicles from BCRP-expressing K562 cells, probe E1S, read-out: Activity.

The target of series [3] is T2, BCRP (ABCG2). Put plainly: TP_TRANSPORTER: inhibition of E1S uptake by 17beta-estradiol at a concentration of 30uM in membrane vesicle from BCRP-expressing K562 cells. Type of series: functional, cell membranes. The arrangement: scale not given: the % may be the effect or the level left. The note with it: membrane vesicles from BCRP-expressing K562 cells, probe E1S, read-out: Activity.

For series [4], the target named is T2, BCRP (ABCG2). Nature of the series: TP_TRANSPORTER: inhibition of E1S uptake by Dehydroepiandrosterone-3-sulfate at a concentration of 30uM in membrane vesicle from BCRP-expressing K562 cells. It is filed as functional, cell membranes. Set-up: scale not given: the % may be the effect or the level left. The following applies: membrane vesicles from BCRP-expressing K562 cells, probe E1S, read-out: Activity.

In series [5] the target is T1, Broad substrate specificity ATP-binding cassette transporter ABCG2. Put plainly: TP_TRANSPORTER: inhibition of E1S uptake by 7-ethyl-10-hydroxycamptothecin at a concentration of 20uM in membrane vesicle from BCRP-expressing K562 cells. Type of series: functional, cell membranes. The note with it: k562, 20 µM. Set-up: scale not given: the % may be the effect or the level left.

Series [6] has the same target. Put plainly: TP_TRANSPORTER: efflux in BCRP-expressing LLC-PK1 cells. The note with it: pig. Type of series: functional, cell-based.
In series [7] the target is T2, BCRP (ABCG2). Nature of the series: TP_TRANSPORTER: inhibition of E1S uptake by 17beta-estradiol 3-sulfate at a concentration of 30uM in membrane vesicle from BCRP-expressing K562 cells. It is filed as functional, cell membranes. The arrangement: scale not given: the % may be the effect or the level left. The following applies: membrane vesicles from BCRP-expressing K562 cells, probe E1S, read-out: Activity.

The target of series [8] is T1, Broad substrate specificity ATP-binding cassette transporter ABCG2. Put plainly: TP_TRANSPORTER: uptake in BCRP-expressing LLC-PK1 cells. Type of series: functional, cell-based. The note with it: pig.
Series [9] has the same target. Put plainly: TP_TRANSPORTER: inhibition of E1S uptake by Cortisol at a concentration of 30uM in membrane vesicle from BCRP-expressing K562 cells. It is filed as functional, cell membranes. Set-up: scale not given: the % may be the effect or the level left. The note with it: k562, 30 µM.
In series [10] the target is T2, BCRP (ABCG2). Nature of the series: TP_TRANSPORTER: inhibition of E1S uptake by Estrone at a concentration of 30uM in membrane vesicle from BCRP-expressing K562 cells. It is filed as functional, cell membranes. The arrangement: scale not given: the % may be the effect or the level left. The note with it: membrane vesicles from BCRP-expressing K562 cells, probe E1S, read-out: Activity.

The target in series [11] is T2, BCRP (ABCG2). Put plainly: TP_TRANSPORTER: inhibition of E1S uptake by Taurolithocholate at a concentration of 30uM in membrane vesicle from BCRP-expressing K562 cells. It is filed as functional, cell membranes. The following applies: membrane vesicles from BCRP-expressing K562 cells, probe E1S, read-out: Activity. Set-up: scale not given: the % may be the effect or the level left.

Substrate in series [12]: C[C@]12CC[C@@H]3c4ccc(OS(=O)(=O)O)cc4CC[C@H]3[C@@H]1CCC2=O
Nature of the series: TP_TRANSPORTER: uptake in membrane vesicle from BCRP-expressing K562 cells. It is filed as functional, cell membranes.

Regarding `COc1ccc2c3c([nH]c2c1)[C@H](C=C(C)C)N1C(=O)[C@@H]2CCCN2C(=O)[C@@H]1C3` [FUMITREMORGIN], the Activity entry in series [1] is “substrate []”.

As to `O=C1c2c(O)ccc(O)c2C(=O)c2c(NCCNCCO)ccc(NCCNCCO)c21` [MITOXANTRONE], in [1], the Activity result was “substrate []”.

Take `C[C@H](CCC(=O)NCCS(=O)(=O)O)C1CC[C@H]2[C@@H]3CC[C@@H]4C[C@H](OS(=O)(=O)O)CC[C@]4(C)[C@H]3CC[C@]12C` (some centres undefined): the activity at 30 µM on BCRP (ABCG2) [2] turned out to be 30%.

For the molecule `C[C@]12CC[C@@H]3c4ccc(O)cc4CC[C@H]3[C@@H]1CC[C@@H]2O` [ESTRADIOL], the activity at 30 µM on BCRP (ABCG2) [3] is 50%.

For the molecule `C[C@]12CC[C@H](OS(=O)(=O)O)CC1=CC[C@@H]1[C@@H]2CC[C@]2(C)C(=O)CC[C@@H]12` [PRASTERONE SULFURIC ACID], the activity at 30 µM at BCRP (ABCG2) [4] came to 50%.

In the case of `CCc1c2c(nc3ccc(O)cc13)-c1cc3c(c(=O)n1C2)COC(=O)[C@]3(O)CC` [7-ETHYL-10-HYDROXYCAMPTOTHECIN], the Activity in series [5] was 40%; in [1], “substrate []”.

With `C[C@]12CC[C@@H]3c4ccc(OS(=O)(=O)O)cc4CC[C@H]3[C@@H]1CC[C@@H]2O`, the Activity entry in series [6] was “substrate []”. The activity at 30 µM at BCRP (ABCG2) [7] came out at 50%.

With `C[C@]12CC[C@@H]3c4ccc(OS(=O)(=O)O)cc4CC[C@H]3[C@@H]1CCC2=O` [ESTRONE SULFURIC ACID], the Activity entry in series [8] was “substrate []”.

`C[C@]12CCC(=O)C=C1CC[C@@H]1[C@@H]2[C@@H](O)C[C@@]2(C)[C@H]1CC[C@]2(O)C(=O)CO` [HYDROCORTISONE] registered an Activity in [9] of 70%.

As for `C[C@]12CC[C@@H]3c4ccc(O)cc4CC[C@H]3[C@@H]1CCC2=O` [ESTRONE], the activity at 30 µM on BCRP (ABCG2) [10] amounted to 70%.

Take `C[C@H](CCC(=O)NCCS(=O)(=O)O)[C@H]1CC[C@H]2[C@@H]3CC[C@@H]4C[C@H](O)CC[C@]4(C)[C@H]3CC[C@]12C` [TAUROLITHOCHOLIC ACID]: the activity at 30 µM at BCRP (ABCG2) [11] came out at 20%.

B1: Broad substrate specificity ATP-binding cassette transporter ABCG2 (Homo sapiens) (protein)
chain: MSSSNVEVFIPVSQGNTNGFPATASNDLKAFTEGAVLSFHNICYRVKLKSGFLPCRKPVEKEILSNINGIMKPGLNAILGPTGGGKSSLLDVLAARKDPSGLSGDVLINGAPRPANFKCNSGYVVQDDVVMGTLTVRENLQFSAALRLATTMTNHEKNERINRVIQELGLDKVADSKVGTQFIRGVSGGERKRTSIGMELITDPSILFLDEPTTGLDSSTANAVLLLLKRMSKQGRTIIFSIHQPRYSIFKLFDSLTLLASGRLMFHGPAQEALGYFESAGYHCEAYNNPADFFLDIINGDSTAVALNREEDFKATEIIEPSKQDKPLIEKLAEIYVNSSFYKETKAELHQLSGGEKKKKITVFKEISYTTSFCHQLRWVSKRSFKNLLGNPQASIAQIIVTVVLGLVIGAIYFGLKNDSTGIQNRAGVLFFLTTNQCFSSVSAVELFVVEKKLFIHEYISGYYRVSSYFLGKLLSDLLPMRMLPSIIFTCIVYFMLGLKPKADAFFVMMFTLMMVAYSASSMALAIAAGQSVVSVATLLMTICFVFMMIFSGLLVNLTTIASWLSWLQYFSIPRYGFTALQHNEFLGQNFCPGLNATGNNPCNYATCTGEEYLVKQGIDLSPWGLWKNHVALACMIVIFLTIAYLKLLFLKKYS
As a reminder, the Km is the concentration of substrate that gives half-maximal velocity. Turning to B1, the Michaelis-Menten constant (Km) in series [12] came out at 6.8 µM.
